Measurements published in ChEMBL document CHEMBL1201862, “PubChem BioAssay data set” (2004).
The source made the active and inactive calls.

Experiments:
[1] = A Cell Based Secondary Assay To Explore Cytotoxicity of Compounds that Sensitize Mycobacterium Tuberculosis to Beta-Lactam Antibiotics.; assay type: functional
[2] = HIV-1 Vif–A3G interaction blockers – biochemical, TR-FRET, GST-Vif 1-94, biotin-A3G peptide, dose response retest, primary screen (AID 1117319); assay type: functional;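 note: TR-FRET signal of purified GST-Vif binding a biotinylated A3G peptide; inhibitors lower the FRET signal by blocking Vif and A3G binding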
[3] = molecular target: DNA damage-inducible transcript 3 protein (Mus musculus, UniProt P35639); assay type: functional, Cricetulus griseus
X-box-binding protein 1 = molecular target: T1, X-box-binding protein 1 (Homo sapiens, UniProt P17861); assay type: functional, Cricetulus griseus;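 note: confirmatory dose-response counter-screen serving a CHOP assay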
T1 sequence (P17861 whole entry): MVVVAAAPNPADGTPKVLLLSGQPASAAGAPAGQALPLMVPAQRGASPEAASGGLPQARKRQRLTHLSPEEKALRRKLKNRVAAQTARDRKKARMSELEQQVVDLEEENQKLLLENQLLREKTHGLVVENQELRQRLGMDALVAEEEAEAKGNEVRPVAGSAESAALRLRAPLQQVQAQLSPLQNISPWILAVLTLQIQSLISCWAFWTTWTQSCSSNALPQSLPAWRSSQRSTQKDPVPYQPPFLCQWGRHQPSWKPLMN

Cytochrome P450 1A2 = molecular target: T2, Cytochrome P450 1A2 (Homo sapiens, UniProt P05177);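 note: PubChem cytochrome P450 panel assay, CYP1A2 panel member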
T2 sequence (P05177 whole entry): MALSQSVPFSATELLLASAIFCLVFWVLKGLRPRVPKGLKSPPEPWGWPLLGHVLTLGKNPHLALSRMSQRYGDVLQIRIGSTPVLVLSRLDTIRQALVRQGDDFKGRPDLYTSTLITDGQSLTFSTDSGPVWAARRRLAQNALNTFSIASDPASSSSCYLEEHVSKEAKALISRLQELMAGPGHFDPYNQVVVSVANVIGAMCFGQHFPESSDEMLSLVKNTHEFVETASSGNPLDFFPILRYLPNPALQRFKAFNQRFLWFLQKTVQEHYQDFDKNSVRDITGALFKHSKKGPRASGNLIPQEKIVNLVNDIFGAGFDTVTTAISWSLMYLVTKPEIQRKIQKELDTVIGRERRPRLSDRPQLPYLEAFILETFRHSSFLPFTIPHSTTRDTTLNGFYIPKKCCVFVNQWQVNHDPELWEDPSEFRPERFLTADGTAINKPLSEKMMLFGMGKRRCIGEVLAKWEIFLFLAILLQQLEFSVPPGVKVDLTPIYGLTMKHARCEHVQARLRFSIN

Cytochrome P450 2C9 = Cytochrome P450 2C9 (Homo sapiens, UniProt P11712)
Hexokinase HKDC1 = molecular target: T3, Hexokinase HKDC1 (Homo sapiens, UniProt Q2TB90); experiment: inhibition of HKDC1 glucose phosphorylation – biochemical, W721R variant, dose response (AID 504729); assay type: functional
T3 sequence (Q2TB90 whole entry): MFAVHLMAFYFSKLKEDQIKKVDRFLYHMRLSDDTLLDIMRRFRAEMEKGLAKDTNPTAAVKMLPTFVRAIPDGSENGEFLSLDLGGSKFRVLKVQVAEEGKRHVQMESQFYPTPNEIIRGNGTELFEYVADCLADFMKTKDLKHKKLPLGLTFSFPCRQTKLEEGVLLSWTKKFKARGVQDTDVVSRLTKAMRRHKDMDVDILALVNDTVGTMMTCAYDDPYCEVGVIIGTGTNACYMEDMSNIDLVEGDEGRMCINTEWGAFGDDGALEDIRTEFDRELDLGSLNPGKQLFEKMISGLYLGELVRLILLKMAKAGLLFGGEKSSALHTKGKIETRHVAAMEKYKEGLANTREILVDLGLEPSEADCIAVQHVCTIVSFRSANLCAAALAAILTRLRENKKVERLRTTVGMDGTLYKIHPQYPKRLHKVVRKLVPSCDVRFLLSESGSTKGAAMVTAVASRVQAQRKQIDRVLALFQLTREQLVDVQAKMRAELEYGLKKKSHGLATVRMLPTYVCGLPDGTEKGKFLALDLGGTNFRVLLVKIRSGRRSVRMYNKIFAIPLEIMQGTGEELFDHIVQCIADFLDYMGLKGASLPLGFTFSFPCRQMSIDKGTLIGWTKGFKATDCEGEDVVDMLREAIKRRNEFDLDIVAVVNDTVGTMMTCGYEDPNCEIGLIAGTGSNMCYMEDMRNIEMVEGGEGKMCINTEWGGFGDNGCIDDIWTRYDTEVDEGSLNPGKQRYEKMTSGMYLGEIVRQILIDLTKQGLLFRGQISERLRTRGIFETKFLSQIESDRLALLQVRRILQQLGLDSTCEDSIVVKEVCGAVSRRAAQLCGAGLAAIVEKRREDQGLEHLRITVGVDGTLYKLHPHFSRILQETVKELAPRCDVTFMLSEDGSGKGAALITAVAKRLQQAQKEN

[4] = molecular target: E3 ubiquitin-protein ligase Mdm2 (Homo sapiens, UniProt Q00987); experiment: MDM2-luc reporter signal enhancers, multi-concentration potency testing, MDM2 ubiquitin-protein ligase inhibitor program, whole-cell format, luminescence detection, 384-well microplate (AID 1394); assay type: functional;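 note: MDM2 E3 inhibitors raise luminescence so EC50 is for signal enhancement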
[5] = tested on: Streptococcus sp. 'group A'; experiment: Streptococcus pyogenes SK(-)GAS viability under kanamycin – luminescence, BacTiterGlo, confirmation, counter-screen for streptokinase expression inhibitor project, dose response (AID 1900); assay type: functional, organism-based
Streptokinase A = molecular target: T4, Streptokinase A (Streptococcus pyogenes serotype M1, UniProt P10520); experiment: viability-normalized secreted streptokinase activity reduction – plasminogen activation absorbance, OD405, dose response (AID 1914); assay type: functional, Streptococcus pyogenes M1 GAS;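 note: secreted streptokinase activity via plasminogen activation per viability signal from cell pellet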
T4 sequence (P10520 whole entry): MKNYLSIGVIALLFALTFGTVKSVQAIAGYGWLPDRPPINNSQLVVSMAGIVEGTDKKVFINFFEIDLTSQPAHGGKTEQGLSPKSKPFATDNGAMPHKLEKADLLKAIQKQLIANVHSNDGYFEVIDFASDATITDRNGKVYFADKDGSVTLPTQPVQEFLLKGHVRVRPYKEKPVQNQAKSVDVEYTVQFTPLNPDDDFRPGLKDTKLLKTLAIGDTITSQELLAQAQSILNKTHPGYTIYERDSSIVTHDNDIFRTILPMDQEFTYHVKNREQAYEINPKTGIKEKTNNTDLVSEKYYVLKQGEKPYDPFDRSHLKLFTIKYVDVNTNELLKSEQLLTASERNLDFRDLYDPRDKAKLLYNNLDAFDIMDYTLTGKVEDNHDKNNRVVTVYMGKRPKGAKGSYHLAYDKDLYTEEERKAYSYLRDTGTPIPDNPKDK

[6] = microbe, parasite or virus in culture; assay type: functional; conditions: Mycobacterium tuberculosis
Streptococcus = experiment: GAS UMAA2166 growth inhibition – luminescence, BacTiterGlo, counter-screen for streptokinase expression inhibitor project, dose response (AID 1915); assay type: functional, organism-based;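 note: potency for reduction of bacterial viability or growth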
[7] = Luminescence Cell-Based Dose Retest to Confirm Inhibitors of Cancer Stem Cells. [Related pubchem assays (depositor defined):AID2717, AID2721]; assay type: functional; conditions: Homo sapiens
INS1 = experiment: INS-1E survival protection against cytokine death – cell-based, luminescence, retest, dose response (AID 449756); assay type: functional; conditions: Rattus norvegicus;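 note: cell death triggered by IL-1 beta plus TNF-alpha plus IFN-gamma mixture; protective hits raise ATP signal compared with cytokine alone wells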
[8] = reduced cellular PGC1a acetyl-lysine signal – cell-based, cherry-picked samples, dose response (AID 720514); assay type: functional;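 note: potency may reflect raised or lowered acetylation signal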
[9] = P. falciparum Dd2 growth inhibitors, dose response, SYBR Green, cherry-picked samples (AID 1159567); assay type: functional, cell-based
[10] = toxicity to human hepatoma HepG2 cells – cell-based, cherry-picked samples, cytotoxicity control, dose response (AID 1159577); assay type: functional
[11] = Luminescence Cell-Based Dose Confirmation HTS to Identify Activators of 5'UTR Stem-Loop Driven Alpha-Synuclein mRNA Translation in H4 Neuroglioblastoma Cells. [Related pubchem assays: 1829 (Project Summary), 1814 (Primary HTS)]; assay type: functional
[12] = Luminescence Cell-Based Dose Response HTS to Identify Activators of Luciferase Translation or Activity in H4 […] Cells. [Related pubchem assays: 1829 (Project Summary), 1814 (Primary HTS)]; assay type: functional
H4 = experiment: Luminescence Cell-Based Dose Response HTS to Identify Activators of 5'UTR Stem-Loop Driven Prion Protein mRNA Translation in H4 Neuroglioblastoma Cells. [Related pubchem assays: 1829 (Project Summary), 1814 (Primary HTS)]; assay type: functional; conditions: Homo sapiens
[13] = molecular target: Eukaryotic translation initiation factor 4E (Mus musculus, UniProt P63073); experiment: blockers of eIF4G binding by eIF4E – biochemical, TR-FRET, dose response (AID 855); assay type: functional;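 note: potency for disrupting eIF4E binding to eIF4GI seen as loss of FRET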
[14] = luciferase reporter signal suppression in cells – H4 neuroglioma cells, luminescence, dose response (AID 1990); assay type: functional, cell-based
BJ [15] = experiment: BJ-TERT fibroblast viability loss – cell-based, RAS-independent, luminescence, dose response (AID 1933); assay type: functional; conditions: Homo sapiens
[16] = Luminescence Cell-Based Dose Response HTS to Identify Inhibitors of 5'UTR Stem-Loop Driven Prion Protein mRNA Translation in H4 Neuroglioblastoma Cells. [Related pubchem assays: 1827 (Project Summary), 1813 (Primary HTS)]; assay type: functional
[17] = alpha-synuclein stem-loop luciferase translation blockers – H4 neuroglioma cells, luminescence, confirmation (AID 1988); assay type: functional, cell-based
BJ [18] = experiment: cells; assay type: functional, cell-based; conditions: Homo sapiens
BJ [19] = experiment: BJ-TERT-LT-ST fibroblast viability loss – cell-based, RAS-independent, luminescence, dose response (AID 1935); assay type: functional; conditions: Homo sapiens;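 note: BJ fibroblasts immortalized with TERT plus LT and ST oncogenes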
[20] = DRD fibroblast viability loss – cell-based, non-viral oncogenic, luminescence, dose response (AID 1934); assay type: functional; conditions: Homo sapiens
[21] = A549 cell cytotoxicity, dose response, cytotoxicity control, plate reader, cherry-pick, antagonist series (AID 743412); assay type: functional, cell-based
[22] = toxicity toward HepG2 liver cells – cell-based, plate reader, cherry-pick, antagonist series, cytotoxicity control, dose response (AID 743416); assay type: functional
[23] = blockers of bursicon-stimulated LGR2 cAMP reporter – cell-based, HEK293, CRE-luciferase reporter, cherry pick, set 2, dose response (AID 743343); assay type: functional;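 note: transfected cells were stimulated with diluted bursicon conditioned medium after compound addition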
[24] = blockade of melanocortin 4 receptor signaling – cell-based, plate reader, cherry pick, counter-screen for LGR2 antagonist project, dose response (AID 743444); assay type: functional;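 note: transfected HEK 293 cells stimulated with alpha-MSH peptide; potency of inhibitors of the alpha-MSH evoked signal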
[25] = viability loss in HEK293 cells – cell-based, plate reader, cherry-picked samples, cytotoxicity control, dose response (AID 743446); assay type: functional
Large T antigen = Large T antigen (Simian virus 40, UniProt P03070); assay type: functional, Betapolyomavirus macacae;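 note: Confirmatory-stage PubChem screen for compounds that inhibit SV40 T antigen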
Chain of Large T antigen (P03070 whole entry): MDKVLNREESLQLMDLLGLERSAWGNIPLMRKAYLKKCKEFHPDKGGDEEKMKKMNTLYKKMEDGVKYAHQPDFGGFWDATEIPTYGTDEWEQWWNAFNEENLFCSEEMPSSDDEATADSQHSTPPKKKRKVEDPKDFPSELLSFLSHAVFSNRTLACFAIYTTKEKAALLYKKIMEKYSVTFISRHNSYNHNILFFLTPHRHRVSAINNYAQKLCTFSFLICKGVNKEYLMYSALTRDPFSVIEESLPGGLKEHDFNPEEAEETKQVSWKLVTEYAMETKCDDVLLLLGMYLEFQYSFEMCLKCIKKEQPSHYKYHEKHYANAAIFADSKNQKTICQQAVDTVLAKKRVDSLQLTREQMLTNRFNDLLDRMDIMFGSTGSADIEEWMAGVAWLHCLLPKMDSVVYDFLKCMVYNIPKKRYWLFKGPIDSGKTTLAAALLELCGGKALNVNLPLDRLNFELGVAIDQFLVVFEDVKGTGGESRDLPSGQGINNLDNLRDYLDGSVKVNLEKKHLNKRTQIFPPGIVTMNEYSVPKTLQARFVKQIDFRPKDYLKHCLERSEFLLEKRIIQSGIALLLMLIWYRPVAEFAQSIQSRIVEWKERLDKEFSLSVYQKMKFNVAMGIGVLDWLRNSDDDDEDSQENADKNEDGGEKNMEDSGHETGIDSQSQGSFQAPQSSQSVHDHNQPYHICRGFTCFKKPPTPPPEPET

Chain of E3 ubiquitin-protein ligase Mdm2 (Q00987 whole entry): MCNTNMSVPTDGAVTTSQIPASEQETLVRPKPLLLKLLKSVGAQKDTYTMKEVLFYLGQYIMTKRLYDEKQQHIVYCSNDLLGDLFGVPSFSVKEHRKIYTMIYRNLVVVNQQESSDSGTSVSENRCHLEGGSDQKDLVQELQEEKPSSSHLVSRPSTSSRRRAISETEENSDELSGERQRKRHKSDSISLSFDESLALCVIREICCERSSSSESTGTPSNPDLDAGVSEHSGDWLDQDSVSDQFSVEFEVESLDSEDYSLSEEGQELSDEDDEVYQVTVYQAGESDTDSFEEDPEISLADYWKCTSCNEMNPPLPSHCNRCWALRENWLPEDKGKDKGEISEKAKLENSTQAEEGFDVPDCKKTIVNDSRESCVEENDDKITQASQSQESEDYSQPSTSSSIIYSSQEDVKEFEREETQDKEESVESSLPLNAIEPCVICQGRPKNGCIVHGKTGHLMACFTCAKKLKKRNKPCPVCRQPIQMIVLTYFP
Chain of Eukaryotic translation initiation factor 4E (P63073 whole entry): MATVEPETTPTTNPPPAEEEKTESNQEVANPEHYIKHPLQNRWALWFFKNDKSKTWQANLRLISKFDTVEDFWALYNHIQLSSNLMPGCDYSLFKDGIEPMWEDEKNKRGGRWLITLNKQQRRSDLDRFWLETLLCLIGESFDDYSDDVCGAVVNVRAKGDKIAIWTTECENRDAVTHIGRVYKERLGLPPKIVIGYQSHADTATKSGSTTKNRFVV
Chain of DNA damage-inducible transcript 3 protein (P35639 whole entry): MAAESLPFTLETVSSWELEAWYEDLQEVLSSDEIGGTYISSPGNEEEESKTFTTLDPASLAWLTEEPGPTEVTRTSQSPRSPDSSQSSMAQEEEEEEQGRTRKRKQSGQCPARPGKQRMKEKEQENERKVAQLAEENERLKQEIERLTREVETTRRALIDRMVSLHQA
Chain of Cytochrome P450 2C9 (P11712 whole entry): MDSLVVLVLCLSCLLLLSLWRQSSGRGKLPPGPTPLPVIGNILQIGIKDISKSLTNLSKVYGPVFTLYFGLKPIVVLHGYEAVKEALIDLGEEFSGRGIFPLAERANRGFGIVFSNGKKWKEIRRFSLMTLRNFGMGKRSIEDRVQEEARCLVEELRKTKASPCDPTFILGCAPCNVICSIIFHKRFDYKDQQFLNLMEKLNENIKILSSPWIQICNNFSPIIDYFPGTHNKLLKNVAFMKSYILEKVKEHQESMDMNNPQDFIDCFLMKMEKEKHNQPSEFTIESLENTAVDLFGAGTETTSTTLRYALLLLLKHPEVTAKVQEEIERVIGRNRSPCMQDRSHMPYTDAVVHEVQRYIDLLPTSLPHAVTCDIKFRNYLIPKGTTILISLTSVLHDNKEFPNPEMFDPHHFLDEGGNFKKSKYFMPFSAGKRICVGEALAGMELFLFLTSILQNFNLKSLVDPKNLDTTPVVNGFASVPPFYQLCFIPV

For `COc1ccc(-c2csc(NC(CO)c3nc4ccccc4n3Cc3ccc(C)cc3)n2)cc1` (stereo not drawn), the CC50 [1] was > 40 µM (active).
In the case of `Cc1cc(/C=N/n2cnnc2)c(C)n1-c1cccc(Cl)c1`, the IC50 [2] is reported as > 100 µM (active).
For `Cc1ccc(-c2nn(C)c(=O)c3ccccc23)cc1CNC(=O)Cn1nc(-c2ccccc2)c2ccccc2c1=O`, the “Absolute IC50 (CHOP)” value [3] was 10 µM, the “Absolute IC50 (XBP1)” value (X-box-binding protein 1) was 10 µM and the AC50 (Cytochrome P450 1A2) was 31.6 µM (inconclusive). For the same molecule, the AC50 (Cytochrome P450 2C9) was 11.2 µM (inconclusive).
In the case of `COc1ccc(CN2C(=O)c3cccnc3C2O)cc1` (stereo not drawn), the IC50 (Hexokinase HKDC1) is reported as 21.5 µM (inactive).
In the case of `O=C(O)c1ccc2c(c1)N(Cc1ccccc1F)C(=O)c1ccccc1[S+]2[O-]` (stereo not drawn), the EC50 [4] is reported as 237 µM (not active).
With `O=C(CN1CCN(c2ncccn2)CC1)NCc1ccccc1` the EC50 [4] was 34 µM (not active).
With `C(=N\Nc1ncnc2sc3c(c12)CCC3)/c1cccs1` the EC50 [5] was 15.8 µM (active), the EC50 (Streptokinase A) was > 150 µM (not active) and the CC50 [6] was 15.7 µM (active). The EC50 (Streptococcus) was 19.5 µM (active), the AC50 [7] was 5.38 µM (active) and the “Absolute IC50 (XBP1)” value (X-box-binding protein 1) was 10 µM. For the same molecule, the AC50 (INS1) was 5.3 µM (active).
For `Cc1ccc(CNC(=O)C2c3ccccc3C(=O)N3CCc4ccccc4C23)o1` (stereo not drawn), the IC50 [2] was > 100 µM (active).
In the case of `CCCc1nc2oc3c(NCC4CCCO4)ncnc3c2c2c1COC(C)(C)C2` (stereo not drawn), the IC50 (Hexokinase HKDC1) is reported as 33.2 µM (inactive).
In the case of `CN(C)c1nc(SCCOC(=O)COc2ccc(Cl)cc2Cl)nc(N(C)C)n1`, the AC50 [8] is reported as 26.1 µM (active).
With `OC[C@@H]1[C@@H](c2ccc(C#CC3CCCC3)cc2)[C@H]2CN(CCC(F)(F)F)CCCCN12` the AC50 [8] was 12.9 µM (active), the AC50 [9] was 1.02 µM (active) and the AC50 [10] was 8.47 µM (active).
For `COc1cccc(OC)c1C(=O)NNC(=O)c1cccc(COc2ccc3c(c2)CCC3)c1`, the EC50 [4] was 0.0021 µM (active).
With `Cc1ccc(NC2c3ncccc3C(=O)N2c2ccccc2C)cc1C` (stereo not drawn) the EC50 [11] was 12 µM (active), the EC50 [12] was 16.5 µM (active) and the EC50 (H4) was 9.38 µM (active). For the same molecule, the IC50 [13] was 9.59 µM (active) and the IC50 (Hexokinase HKDC1) was 11.6 µM (active).
For `CCOc1ccc(N(CC(=O)Nc2ccccc2OC)S(=O)(=O)c2ccccc2)cc1`, the EC50 [14] was 4.97 µM (active), the EC50 (BJ [15]) was 0.928 µM (active) and the EC50 [16] was 0.36 µM (active). The EC50 [17] was 0.323 µM (active), the EC50 (BJ [18]) was 20.3 µM (active) and the EC50 (BJ [19]) was 0.804 µM (active). The EC50 [20] was 0.663 µM (active) and the AC50 [8] was 30.7 µM (active).
With `Cc1ccn2cc(-c3ccc(Br)cc3)nc2c1` the AC50 [21] was > 52 µM (inactive), the AC50 [22] was 49.2 µM (active) and the AC50 [23] was 3.6 µM (active). For the same molecule, the AC50 [24] was 2.76 µM (active) and the AC50 [25] was 42.6 µM (active).
With `COc1cc([N+](=O)[O-])ccc1NC(=O)Oc1ccc(NC(C)=O)cc1` the IC50 (Large T antigen) was 8.79 µM (active) and the IC50 [2] was > 100 µM (active).
